Reference: patent US6569411B2, “Serine carbonates” (The Gillette Company, priority 1999, dated 2003)

Tests used:
[1] = test system: Staphylococcus haemolyticus cells; test: Sniff assay: malodor inhibition and fragrance production with axillary malodor precursors; type: cell-based; conditions: 0.1% compound with malodor precursors and cells at 37° C., seven judges, 8-point scale
Description: The serine carbonate 2-Amino-3-(1,5,7-trimethyl-octyl-oxycarbonyloxy)-propionic acid has been tested in a sniff assay to determine whether, in the presence of Staphylococcus haemolyticus and axillary malodor precursors, production of malodor is inhibited and production of fragrance can be detected. For this assay, axillary washes, which contain malodor precursors, were dried into vials at a concentration sufficient to produce a strong axillary malodor when incubated with Staphylococcus haemolyticus cells. Vials were incubated at 37° C. with Staphylococcus haemolyticus cells. The vials contained […] with 0.1% 2-amino-3-(1,5,7-trimethyl-octyl-oxycarbonyloxy)-propionic acid. Control precursor vials were not incubated with the cells. The mixtures were extracted with chloroform and about 10 μl of the chloroform layers were spotted on bibulous paper. After the chloroform had evaporated, the papers were evaluated for malodor level and fragrance level. Evaluations were done by seven judges who rated malodor or fragrance strength on an 8-point scale from 0 (none) to 7 (extremely strong). Results were calculated as percent change from control malodor or precursor fragrance score.

[2] = test system: Staphylococcus haemolyticus cells; test: Gas chromatography assay of cleavage of serine carbonates by axilla bacteria; type: cell-based; conditions: 350 nmol of compound, 16-18 hours at 37° C.
Description: This example is meant to illustrate, not to limit, the invention.
The synthesized amino acid derivatives were tested for their ability to be cleaved by bacteria normally found in human axilla. A 100 ml culture of Staphylococcus haemolyticus was grown overnight at 37° C. in TSB medium.
The cells were pelleted by centrifuging the culture at 5,000 rpm for 12 minutes, and the pelleted cells were resuspended in sterile saline. The cells were again pelleted and resuspended in sterile saline. After pelleting the cells once again, the cells were weighed and resuspended in sterile assay buffer (50 mM phosphate, pH 6.8, 1% glucose/dextran). The final concentration of cells was 0.05 g cells/ml (for the gas chromatography (GC) assay). These cell suspensions can be stored at 4° C.
The serine carbonate was prepared as stock solution at a concentration of approximately 5 mg/ml in 50 mM potassium phosphate buffer (pH 6.8). If necessary, the pH can be adjusted to 6.8-7.0 with 1N NaOH. The serine carbonate stock solution was sterilized by filtering through 0.22 μm filters.
For a negative control, the cells were incubated with 100 μl sterile phosphate buffer. […] The samples then were extracted into 100 μl chloroform and analyzed by gas chromatography.

Question: With `CC(C)CCCC(C)C1CCC2C3CC=C4CC(OC(=O)OCC(N)C(=O)O)CCC4(C)C3CCC12C` (centres unmarked) as the compound, how does the melting point read?
Answer: 147 °C

Question: With `CC(C)CC(C)CCCC(C)OC(=O)OCC(N)C(=O)O` (centres unmarked) [Example 3a, 2-Amino-3-(1,5,7-trimethyl-octyloxycarbonyloxy)-propionic acid] as the compound, how does the Malodor drop ([1]; percent change from control malodor score) read?
Answer: 50%

Question: And the Fragrance increase ([1]; percent change from control precursor fragrance score)?
Answer: 30%

Question: With `CC(CCOC(=O)OCC(N)C(=O)O)CCc1ccccc1` (centres unmarked) [Example 3e, 2-Amino-3-(3-methyl-5-phenyl-pentyloxycarbonyloxy)-propionic acid] as the compound, how does the “precursor cleaved by the cells” value [2] read?
Answer: 40%

Question: And the “3-methyl-5-phenyl-pentanol produced by the cell incubation” value ([2]; pH 6.8, GC analysis)?
Answer: 140 nmols
